The text below walks through data of patent publication US12240854B2, “TRAF 6 inhibitors” (Helmholtz Zentrum München - Deutsches Forschungszentrum für …, priority 2018, dated 2025).

Test [1] addresses T1, TRAF6-Ubc13 binding in HEK293T cells (Homo sapiens, UniProt Q9Y4K3).
T1 construct: RING-Zincfinger1 (RZ1) domain (residues 50-159) of human TRAF6 wildtype; expressed in transfected cells; host or cells: HEK 293T
T1 sequence (Q9Y4K3 50-159): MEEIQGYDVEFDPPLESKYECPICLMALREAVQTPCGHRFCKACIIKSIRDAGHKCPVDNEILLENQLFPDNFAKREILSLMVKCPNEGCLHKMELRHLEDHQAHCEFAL
Nature of the test: Co-immunoprecipitation of HA-TRAF6 and Ubc13 in HEK 293T cells. Format: cell-based. How it is done:
To study the interaction of TRAF6 and Ubc13 in cells, 1×10^6 293T cells were seeded and after 18 hours cells were transfected with 1 μg pEF-HA empty or pEF-HA-TRAF6 RZ1 plasmid using the X-tremeGENE HP DNA transfection reagent (Roche). 6 hours upon transfection, cells were treated with compound or DMSO. After 42 hours further incubation, cells were harvested in Co-IP lysis buffer and HA-TRAF6 was immunoprecipitated with anti-HA affinity matrix (Roche). Binding of Ubc13 to TRAF6 was examined in Western Blot analysis.

Test [2] addresses T2, TRAF6WTStrepII-Ubc13FH interaction (Homo sapiens, UniProt Q9Y4K3).
T2 construct: RING-Zincfinger1 (RZ1) domain (residues 50-159) of human TRAF6 wildtype; made in house; host or cells: E. coli BL21 codon plus RIPL
T2 sequence (Q9Y4K3 with tags, fused parts or gaps): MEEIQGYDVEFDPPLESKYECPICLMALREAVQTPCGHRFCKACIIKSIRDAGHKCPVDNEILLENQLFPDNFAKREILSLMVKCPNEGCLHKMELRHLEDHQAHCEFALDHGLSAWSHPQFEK
Description: ALPHAScreen TRAF6-Ubc13 interaction assay. Format: binding. The text has this: In order to identify small molecules that specifically target the RZ1 domain of TRAF6 and thereby prevent its binding to Ubc13, the ALPHAScreen technology (PerkinElmer) was chosen to detect TRAF6WTStrepII-Ubc13FH interaction in High-Throughput-Screenings as well as Structure Activity Relationship (SAR) analysis.
For performance of an automated ALPHAScreen assay, all following components were pre-diluted in ALPHAScreen buffer (1×PBS, 0.5% BSA, 0.01% Tween-20). First, the TRAF6 protein (end concentration 100 nM, 30 μL volume) was added to 384-well-opti-plates involving the MultiFlo dispensing system (BioTek) followed by transfer of the compounds via the Sciclone G3 transfer station (PerkinElmer). After addition of Ubc13FH (end concentration 75 nM, 10 μL volume) with the MultiFlo system and incubation for one hour at room temperature, both beads (Strep-Tactin Alpha Donor beads and Nickel-Chelate acceptor beads; end concentrations 4 μg each, 10 μL volume each) were mixed and added using the MultiFlo system in subdued light. Read-out of the plates occurred after another hour of incubation at room temperature. Statistical parameters including the coefficient of variation, Z′ factor and signal window were calculated to determine the quality of the HTS campaign. To evaluate the efficacy of the compounds, ALPHAScreen units of compound-treated samples were referred to DMSO control treated samples. Thereby, the TRAF6D57K mutant served as the control for minimum signal and was included on every plate of the screening. Compounds that inhibited TRAF6WTStrepII-Ubc13FH by more than 25% were considered as actives. After elimination of ALPHAScreen frequent hitter compounds and His-tag frequent hitters (Schorpp, K., I. Rothenaigner, E. Salmina, et al., Identification of Small-Molecule Frequent Hitters from AlphaScreen High-Throughput Screens. J Biomol Screen, 2014. 19(5): p. 715-26), 178 compounds were defined as primary hits and were subsequently tested in five-point serial dilution assays (2.5-40 μM) in TRAF6WTStrepII-Ubc13FH ALPHAScreen experiments. Only compounds with dose-dependent effects on TRAF6WTStrepII-Ubc13FH (n=27) were taken for further research. For analog testing, all compounds were analyzed in ten-point titration (0.2-100 μM) in TRAF6WTStrepII-Ubc13FH ALPHAScreen experiments. In parallel, the compounds were tested in the ALPHAScreen TruHits Kit (PerkinElmer) to rule out unspecific interference with the ALPHAScreen technology.

“Also recorded” adds a separate entry of the source. Like-named read-outs stand apart in the source and are kept apart here.

`Cc1nn(-c2ccc3nnc(C)n3n2)c(C)c1CCC(=O)N1CCN(Cc2ccc(F)cc2)CC1` [HZM06-3, 1-(4-(4-fluorobenzyl)piperazin-1-yl)-3-(3,5-dimethyl-1-(3-methyl-[1,2,4]triazolo[4,3-b]pyridazin-6-yl)-1H-pyrazol-4-yl)propan-1-one]: in test [1], the “interaction of endogenous Ubc13 with HA-tagged TRAF6 (co-immunoprecipitation)” value (“interaction of endogenous Ubc13” for short) is “also active in cells”. For the compound `Cc1nn(-c2ccc3nnc(C)n3n2)c(C)c1CCC(=O)N1CCC(Cc2ccccc2)C1` (centres unmarked) [HZM06-4, 1-(3-benzylpyrrolidin-1-yl)-3-(3,5-dimethyl-1-(3-methyl-[1,2,4]triazolo[4,3-b]pyridazin-6-yl)-1H-pyrazol-4-yl)propan-1-one], the “inhibition of TRAF6-Ubc13 interaction in ALPHAScreen (in words)” value in test [2] is reported as “most prominent effect”. Also, the “interaction of endogenous Ubc13” value in test [1] was “also active in cells; also recorded: most active analogs”; in test [1] (listed as HZM06-04) it was “demonstrated inhibition of TRAF6-Ubc13 binding”. `COc1cccc(CN2CCN(C(=O)CCc3c(C)nn(-c4ccc5nnc(C)n5n4)c3C)CC2)c1` [HZM06-2, 1-(4-(3-methoxybenzyl)piperazin-1-yl)-3-(3,5-dimethyl-1-(3-methyl-[1,2,4]triazolo[4,3-b]pyridazin-6-yl)-1H-pyrazol-4-yl)propan-1-one]: the “interaction of endogenous Ubc13” value in test [1] is “also active in cells”. For the compound `Cc1nn(-c2ccc3nnc(C)n3n2)c(C)c1CCC(=O)N1CCC(Cc2ccccn2)CC1` [HZM06-10, 3-(3,5-dimethyl-1-(3-methyl-[1,2,4]triazolo[4,3-b]pyridazin-6-yl)-1H-pyrazol-4-yl)-1-(4-((pyridin-2-yl)methyl)piperidin-1-yl)propan-1-one], the “interaction of endogenous Ubc13” value in test [1] is on record as “also active in cells”.

On to `Cc1nn(-c2ccc3nnc(C)n3n2)c(C)c1CCC(=O)N1CCC(Cc2ccc(F)cc2)CC1` [HZM06-9, 1-(4-(4-fluorobenzyl)piperidin-1-yl)-3-(3,5-dimethyl-1-(3-methyl-[1,2,4]triazolo[4,3-b]pyridazin-6-yl)-1H-pyrazol-4-yl)propan-1-one], for which the results for the “interaction of endogenous Ubc13” value in test [1] and in test [1] (listed as HZM06-09) were “also active in cells; also recorded: most active analogs” and “demonstrated inhibition of TRAF6-Ubc13 binding”, respectively.

With `Cc1nn(-c2ccc3nnc(C)n3n2)c(C)c1CCC(=O)N1CCN(Cc2ccccc2)CC1` [HZM06-1, 1-(4-benzylpiperazin-1-yl)-3-(3,5-dimethyl-1-(3-methyl-[1,2,4]triazolo[4,3-b]pyridazin-6-yl)-1H-pyrazol-4-yl)propan-1-one], the “interaction of endogenous Ubc13” value in test [1] is recorded as “also active in cells”. Regarding `Cc1nn(-c2ccc3nnc(C)n3n2)c(C)c1CCC(=O)N1CCC(c2ccccn2)CC1` [HZM06-7, 3-(3,5-dimethyl-1-(3-methyl-[1,2,4]triazolo[4,3-b]pyridazin-6-yl)-1H-pyrazol-4-yl)-1-(4-(pyridin-2-yl)piperidin-1-yl)propan-1-one], the “interaction of endogenous Ubc13” value in test [1] was “also active in cells; also recorded: most active analogs”; in test [1] (listed as HZM06-07), “demonstrated inhibition of TRAF6-Ubc13 binding”.
